Laboratory results from the NIST ThermoML archive (doi:10.1016/j.jct.2005.08.007).
Where “and” joins values, the source holds several entries; their conditions need not be identical. Equal entries are not always repeated. Numbers after ± are expanded uncertainties.

Settings: Crystal, Calculated from knudsen effusion weight loss

| Compound | vapor or sublimation pressure (305.14 K) | vapor or sublimation pressure (307.15 K) | vapor or sublimation pressure (309.16 K) | vapor or sublimation pressure (311.15 K) | vapor or sublimation pressure (313.15 K) | vapor or sublimation pressure (315.13 K) | vapor or sublimation pressure (317.13 K) | vapor or sublimation pressure (319.17 K) | vapor or sublimation pressure (321.14 K) | vapor or sublimation pressure (361.11 K) | vapor or sublimation pressure (363.08 K) | vapor or sublimation pressure (365.26 K) | vapor or sublimation pressure (367.09 K) | vapor or sublimation pressure (369.04 K) | vapor or sublimation pressure (371.26 K) | vapor or sublimation pressure (373.26 K) | vapor or sublimation pressure (375 K) | vapor or sublimation pressure (377.06 K) |
| --- | --- | --- | --- | --- | --- | --- | --- | --- | --- | --- | --- | --- | --- | --- | --- | --- | --- | --- |
| O=[N+]([O-])c1cccc2ccccc12 [1-nitronaphthalene] | 0.0001735 ± 8.7e-06 kPa and 0.0001744 ± 8.7e-06 kPa and 0.0001738 ± 8.7e-06 kPa | 0.0002252 ± 1.1e-05 kPa and 0.0002215 ± 1.1e-05 kPa and 0.000218 ± 1.1e-05 kPa | 0.0002813 ± 1.4e-05 kPa and 0.0002824 ± 1.4e-05 kPa and 0.0002776 ± 1.4e-05 kPa | 0.0003559 ± 1.8e-05 kPa and 0.0003531 ± 1.8e-05 kPa and 0.0003518 ± 1.8e-05 kPa | 0.0004632 ± 2.3e-05 kPa and 0.0004566 ± 2.3e-05 kPa and 0.0004531 ± 2.3e-05 kPa | 0.0005799 ± 2.9e-05 kPa and 0.0005723 ± 2.9e-05 kPa and 0.0005739 ± 2.9e-05 kPa | 0.0006969 ± 3.5e-05 kPa and 0.0007016 ± 3.5e-05 kPa and 0.0006949 ± 3.5e-05 kPa | 0.0008754 ± 4.4e-05 kPa and 0.0008956 ± 4.5e-05 kPa and 0.0008803 ± 4.4e-05 kPa | 0.001127 ± 0.00012 kPa and 0.001114 ± 0.00011 kPa and 0.001108 ± 0.00011 kPa |  |  |  |  |  |  |  |  |  |
| O=[N+]([O-])c1c2ccccc2cc2ccccc12 [9-nitroanthracene] |  |  |  |  |  |  |  |  |  | 0.00019 ± 1e-05 kPa and 0.000196 ± 1e-05 kPa and 0.000195 ± 1e-05 kPa | 0.000236 ± 1.2e-05 kPa and 0.000238 ± 1.2e-05 kPa | 0.000291 ± 1.5e-05 kPa and 0.000294 ± 1.5e-05 kPa | 0.000354 ± 1.8e-05 kPa and 0.000339 ± 1.7e-05 kPa and 0.000342 ± 1.7e-05 kPa | 0.000431 ± 2.2e-05 kPa and 0.000439 ± 2.2e-05 kPa and 0.000427 ± 2.1e-05 kPa | 0.000532 ± 2.7e-05 kPa and 0.000526 ± 2.6e-05 kPa and 0.000534 ± 2.7e-05 kPa | 0.00064 ± 3.2e-05 kPa and 0.000643 ± 3.2e-05 kPa and 0.000647 ± 3.2e-05 kPa | 0.000772 ± 3.9e-05 kPa and 0.000773 ± 3.9e-05 kPa and 0.000761 ± 3.8e-05 kPa | 0.000928 ± 4.6e-05 kPa and 0.000924 ± 4.6e-05 kPa |
